In patent US20050048508A1, “Trehalose receptor and method for detecting trehalose with the same” (KABUSHIKI KAISHA HAYASHIBARA SEIBUTSU KAGAKU KENKYUJO, priority 2002, published 2005):

What was measured:
[1] = biological target: T1, T1R1 with G protein α-subunits (α15 and α16/Z chimeric protein) (Mus musculus, UniProt Q99PG6); assay: Intracellular calcium ion assay, 293 cells coexpressing G protein α-subunits and T1R1; type: cell-based; conditions: 293 cells: T1R1 + G protein α-subunits; 0.67 ml of 1 M saccharide solution added to 2 ml cell suspension; FLUO-4 AM
T1 construct: expressed in transfected cells; host or cells: 293 cells, RCB 1637 (human embryonic kidney)
T1 sequence (Q99PG6 20-842 L120P/N244D/D281A/N309Y/P311T/S314P/H418Y): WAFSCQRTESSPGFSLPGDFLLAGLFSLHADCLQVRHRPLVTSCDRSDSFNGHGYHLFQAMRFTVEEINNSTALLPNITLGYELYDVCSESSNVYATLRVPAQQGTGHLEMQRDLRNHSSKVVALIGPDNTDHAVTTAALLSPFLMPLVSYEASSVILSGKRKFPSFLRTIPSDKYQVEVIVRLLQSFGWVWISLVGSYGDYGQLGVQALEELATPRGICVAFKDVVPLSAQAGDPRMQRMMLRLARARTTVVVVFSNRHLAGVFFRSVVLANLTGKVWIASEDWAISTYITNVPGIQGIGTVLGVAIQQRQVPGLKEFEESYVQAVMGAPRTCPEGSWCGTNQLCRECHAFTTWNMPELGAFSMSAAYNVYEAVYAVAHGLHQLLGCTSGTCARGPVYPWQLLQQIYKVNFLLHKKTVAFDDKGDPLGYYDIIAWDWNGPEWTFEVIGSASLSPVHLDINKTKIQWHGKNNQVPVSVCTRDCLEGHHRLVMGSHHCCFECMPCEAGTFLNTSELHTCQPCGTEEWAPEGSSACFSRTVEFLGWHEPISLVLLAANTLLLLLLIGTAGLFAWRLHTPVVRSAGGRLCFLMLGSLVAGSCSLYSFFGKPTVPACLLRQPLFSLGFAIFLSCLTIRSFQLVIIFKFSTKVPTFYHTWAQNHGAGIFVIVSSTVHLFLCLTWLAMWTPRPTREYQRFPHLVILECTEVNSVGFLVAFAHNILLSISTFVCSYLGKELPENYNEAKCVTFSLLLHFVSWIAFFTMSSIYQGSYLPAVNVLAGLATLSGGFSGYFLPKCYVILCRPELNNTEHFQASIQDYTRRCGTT
Procedure: (§1) The coexpression vector for the G protein α-subunit α15 and the G protein α16/Z chimeric protein (hereinafter designated as “G protein α-subunits”) obtained in Example 1-3 was gene transferred to 293 cells, RCB 1637, a human embryonic kidney cell line, available from the Riken Bioresource Center, Ibaraki, Japan, by conventional lipofection. The gene transferred cells were suspended in Dulbecco's Modified Eagle's Medium (D-MEM) supplemented with 1 mg/L of “PUROMYCIN”, a trade mane of puromycin commercialized by Edge Biosystems, MD, USA, and 10% (v/v) of fetal calf serum to give a cell density of 2×10^6 cells/ml and cultured in a plastic petri dish for cell culture. […]
(§2) The captioned reactivity test was conducted according to a conventional intracellular calcium ion assay: 293 Cells prepared in Example 3, capable of coexpressing the G protein α-subunits and the sweet taste receptor(s), were cultured in a plastic petri dish for cell culture until reaching its confluent phase. […] Two milliliters of the resultant cell suspension was injected into a glass cuvette, commercialized by Hitachi, Ltd., Tokyo, Japan, and analyzed on “HITACHI 650-40”, a fluorescence spectrophotometer commercialized by Hitachi, Ltd., Tokyo, Japan. […]

[2] = tested on: G protein α-subunits (α15 and α16/Z chimeric protein), no sweet taste receptor; assay: Intracellular calcium ion assay, 293 cells expressing G protein α-subunits without sweet taste receptor; type: cell-based, Mouse, Human; conditions: 293 cells: G protein α-subunits only, no T1R1/T1R2/T1R3; 0.67 ml of 1 M saccharide solution added to 2 ml cell suspension
Procedure: as §1, §2

Influx of calcium ion [1] | Compound | Influx of calcium ion [2]
Negative | OC[C@H]1O[C@@](CO)(O[C@H]2O[C@H](CO)[C@@H](O)[C@H](O)[C@H]2O)[C@@H](O)[C@@H]1O [Sucrose, reference compound] | Negative
Negative | OC[C@H]1O[C@H](O[C@H]2O[C@H](CO)[C@@H](O)[C@H](O)[C@H]2O)[C@H](O)[C@@H](O)[C@@H]1O [Trehalose] | Negative
